Results as given in patent US10280166B2, “2-(1H-indazol-3-yl)-3H-imidazo[4,5-B]pyridine and therapeutic uses thereof” (Samumed, LLC, priority 2014, dated 2019).
pIC50: −log10 of the molar value.

What follows are compounds tested on Wnt activity (SW480 colon carcinoma cells stably expressing the Sp5-Luc reporter gene) (assay: Sp5-Luc reporter gene screening assay for Wnt activity in SW480 cells). Settings: Homo sapiens, 42 h incubation, luminescence.
Type: cell-based
Text: The screening assay for Wnt activity is described as follows. Reporter cell lines can be generated by stably transducing cancer cell lines (e.g., colon cancer) or primary cells (e.g., IEC-6 intestinal cells) with a lentiviral construct that includes a Wnt-responsive promoter driving expression of the firefly luciferase gene.
SW480 colon carcinoma cells were transduced with a lentiviral vector expressing luciferase with a human Sp5 promoter consisting of a sequence of eight TCF/LEF binding sites. SW480 cells stably expressing the Sp5-Luc reporter gene and a hygromycin resistance gene were selected by treatment with 150 μg/ml of hygromycin for 7 days. These stably transduced SW480 cells were expanded in cell culture and used for all further screening activities. For Sp5-Luc reporter gene assays, the cells were plated at 10,000 cells/well in 96-well plates with growth medium containing 10% fetal calf serum and incubated overnight at 37° C. and 5% CO2. Each compound was dissolved in DMSO as a 10 mM stock in standard j-vials and used to prepare compound source plates in dose-response format with 3-fold serial dilutions and a 10 mM top concentration. Compound transfer from serially diluted source plates to assay plates containing the cells was accomplished using a pintool (Multimek 96, Beckman equipped with V&P Scientific FP1S50H pins) based liquid handling protocol. This protocol used a slotted pin to transfer 50 nl of compound from a source plate well to an assay plate well containing 50 μl of cells in growth medium. […] Control wells received 50 nl of DMSO treatment for normalization and calculating IC50 values. The treated cells were incubated at 37° C. and 5% CO2 for an additional forty-two hours. Following incubation, the growth medium was removed and 50 μl of BrightGlo luminescence reagent (Promega) was added to each well of the 96-well assay plates. The plates were placed on an orbital shaker for 5 min and then luminescence was quantified on the Victor3 (Perkin Elmer) plate reader. Readings were normalized to DMSO only treated cells, and normalized activities were utilized for IC50 calculations using the dose-response log (inhibitor) vs. response—variable slope (four parameters) nonlinear regression feature available in GraphPad Prism 5.0 or 6.0.
With `CC(C)CC(=O)Nc1cncc(-c2ccc3[nH]nc(-c4nc5c(-c6ccc(F)cc6)ccnc5[nH]4)c3c2)c1` [Compound 28, N-(5-(3-(7-(4-Fluorophenyl)-3H-imidazo[4,5-b]pyridin-2-yl)-1H-indazol-5-yl)pyridin-3-yl)-3-methylbutanamide] the pIC50 was 8.40. In the case of `CC(C)(C)CC(=O)Nc1cncc(-c2ccc3[nH]nc(-c4nc5c(-c6ccccc6F)ccnc5[nH]4)c3c2)c1` [Compound 68, N-(5-(3-(7-(2-Fluorophenyl)-3H-imidazo[4,5-b]pyridin-2-yl)-1H-indazol-5-yl)pyridin-3-yl)-3,3-dimethylbutanamide], the pIC50 was 7.28. Compound `CC(C)C(=O)Nc1cncc(-c2ccc3[nH]nc(-c4nc5c(-c6cccnc6)ccnc5[nH]4)c3c2)c1` [Compound 87, N-(5-(3-(7-(Pyridin-3-yl)-3H-imidazo[4,5-b]pyridin-2-yl)-1H-indazol-5-yl)pyridin-3-yl)isobutyramide] has a pIC50 of 8.17. In the case of `O=C(Cc1ccccc1)Nc1cncc(-c2ccc3[nH]nc(-c4nc5c(-c6ccncc6)ccnc5[nH]4)c3c2)c1` [Compound 114, 2-Phenyl-N-(5-(3-(7-(pyridin-4-yl)-3H-imidazo[4,5-b]pyridin-2-yl)-1H-indazol-5-yl)pyridin-3-yl)acetamide], the pIC50 was 7.27. For `CCCC(=O)Nc1cncc(-c2ccc3[nH]nc(-c4nc5c(-c6ccncc6)ccnc5[nH]4)c3c2)c1` [Compound 121, N-(5-(3-(7-(Pyridin-4-yl)-3H-imidazo[4,5-b]pyridin-2-yl)-1H-indazol-5-yl)pyridin-3-yl)butyramide], the pIC50 was 7.46. `O=C(Nc1cncc(-c2ccc3[nH]nc(-c4nc5c(-c6ccncc6)ccnc5[nH]4)c3c2)c1)C1CCCCC1` [Compound 126, N-(5-(3-(7-(Pyridin-4-yl)-3H-imidazo[4,5-b]pyridin-2-yl)-1H-indazol-5-yl)pyridin-3-yl)cyclohexanecarboxamide] was tested, and the pIC50 was 7.51. For `CN1CCN(c2ccnc3[nH]c(-c4n[nH]c5ccc(-c6cncc(N)c6)cc45)nc23)CC1` [Compound 211, 5-(3-(7-(4-Methylpiperazin-1-yl)-3H-imidazo[4,5-b]pyridin-2-yl)-1H-indazol-5-yl)pyridin-3-amine], the pIC50 was 7.18. Work on `O=C(Cc1ccccc1)Nc1cncc(-c2ccc3[nH]nc(-c4nc5cccnc5[nH]4)c3c2)c1` [Compound 244, N-(5-(3-(3H-Imidazo[4,5-b]pyridin-2-yl)-1H-indazol-5-yl)pyridin-3-yl)-2-phenylacetamide] yielded a pIC50 of 6.45. `CC(C)(C)C(=O)Nc1cncc(-c2ccc3[nH]nc(-c4nc5c(-c6ccsc6)ccnc5[nH]4)c3c2)c1` [Compound 268, N-(5-(3-(7-(Thiophen-3-yl)-3H-imidazo[4,5-b]pyridin-2-yl)-1H-indazol-5-yl)pyridin-3-yl)pivalamide] showed a pIC50 of 8.19. Compound `CN(C)c1cncc(-c2ccc3[nH]nc(-c4nc5c(-c6cccs6)ccnc5[nH]4)c3c2)c1` [Compound 319, N,N-Dimethyl-5-(3-(7-(thiophen-2-yl)-3H-imidazo[4,5-b]pyridin-2-yl)-1H-indazol-5-yl)pyridin-3-amine] has a pIC50 of 7.20. Work on `CC(C)C(=O)Nc1cncc(-c2ccc3[nH]nc(-c4nc5c(-c6cccs6)ccnc5[nH]4)c3c2)c1` [Compound 321, N-(5-(3-(7-(Thiophen-2-yl)-3H-imidazo[4,5-b]pyridin-2-yl)-1H-indazol-5-yl)pyridin-3-yl)isobutyramide] yielded a pIC50 of 7.39. `CC(C)CC(=O)Nc1cncc(-c2ccc3[nH]nc(-c4nc5c(-c6ccc(F)s6)ccnc5[nH]4)c3c2)c1` [Compound 340, N-(5-(3-(7-(5-Fluorothiophen-2-yl)-3H-imidazo[4,5-b]pyridin-2-yl)-1H-indazol-5-yl)pyridin-3-yl)-3-methylbutanamide] showed a pIC50 of 8.31. With `O=C(Nc1cncc(-c2ccc3[nH]nc(-c4nc5c(-c6ccc(F)s6)ccnc5[nH]4)c3c2)c1)C1CCC1` [Compound 358, N-(5-(3-(7-(5-Fluorothiophen-2-yl)-3H-imidazo[4,5-b]pyridin-2-yl)-1H-indazol-5-yl)pyridin-3-yl)cyclobutanecarboxamide] the pIC50 was 8.16. Work on `CS(=O)(=O)NCc1cc(F)cc(-c2ccnc3[nH]c(-c4n[nH]c5ccc(-c6cncc(NC(=O)c7ccccc7)c6)cc45)nc23)c1` [Compound 427, N-(5-(3-(7-(3-Fluoro-5-(methylsulfonamidomethyl)phenyl)-3H-imidazo[4,5-b]pyridin-2-yl)-1H-indazol-5-yl)pyridin-3-yl)benzamide] yielded a pIC50 of 7.72. `CS(=O)(=O)NCc1cc(F)cc(-c2ccnc3[nH]c(-c4n[nH]c5ccc(-c6cncnc6)cc45)nc23)c1` [Compound 442, N-(3-Fluoro-5-(2-(5-(pyrimidin-5-yl)-1H-indazol-3-yl)-3H-imidazo[4,5-b]pyridin-7-yl)benzyl)methanesulfonamide] was tested, and the pIC50 was 8.24. In the case of `CN(C)Cc1cncc(-c2cc(F)c3[nH]nc(-c4nc5c(-c6cccc(F)c6)ccnc5[nH]4)c3c2)c1` [Compound 481, 1-(5-(7-fluoro-3-(7-(3-fluorophenyl)-3H-imidazo[4,5-b]pyridin-2-yl)-1H-indazol-5-yl)pyridin-3-yl)-N,N-dimethylmethanamine], the pIC50 was 6.81. Compound `CN(C)Cc1cncc(-c2cc(F)c3[nH]nc(-c4nc5c(-c6ccsc6)ccnc5[nH]4)c3c2)c1` [Compound 741, 1-(5-(7-Fluoro-3-(7-(thiophen-3-yl)-3H-imidazo[4,5-b]pyridin-2-yl)-1H-indazol-5-yl)pyridin-3-yl)-N,N-dimethylmethanamine] has a pIC50 of 6.03. `CN(C)Cc1cncc(-c2cc(F)c3[nH]nc(-c4nc5c(-c6cc(F)cc(CNS(C)(=O)=O)c6)ccnc5[nH]4)c3c2)c1` [Compound 897, N-(3-(2-(5-(5-((Dimethylamino)methyl)pyridin-3-yl)-7-fluoro-1H-indazol-3-yl)-3H-imidazo[4,5-b]pyridin-7-yl)-5-fluorobenzyl)methanesulfonamide] was tested, and the pIC50 was 7.13. With `CN(C)Cc1cncc(-c2cc3c(-c4nc5c(-c6cccc(F)c6)ccnc5[nH]4)n[nH]c3cc2F)c1` [Compound 949, 1-(5-(6-Fluoro-3-(7-(3-fluorophenyl)-3H-imidazo[4,5-b]pyridin-2-yl)-1H-indazol-5-yl)pyridin-3-yl)-N,N-dimethylmethanamine] the pIC50 was < 5.00. With `CN(C)Cc1cncc(-c2cc3c(-c4nc5c(-c6ccsc6)ccnc5[nH]4)n[nH]c3cc2F)c1` [Compound 1209, 1-(5-(6-Fluoro-3-(7-(thiophen-3-yl)-3H-imidazo[4,5-b]pyridin-2-yl)-1H-indazol-5-yl)pyridin-3-yl)-N,N-dimethylmethanamine] the pIC50 was < 5.00. `CN(C)Cc1cncc(-c2cc3c(-c4nc5c(-c6cc(F)cc(CNS(C)(=O)=O)c6)ccnc5[nH]4)n[nH]c3cc2F)c1` [Compound 1365, N-(3-(2-(5-(5-((Dimethylamino)methyl)pyridin-3-yl)-6-fluoro-1H-indazol-3-yl)-3H-imidazo[4,5-b]pyridin-7-yl)-5-fluorobenzyl)methanesulfonamide] gave a pIC50 of 6.09. For `CN(C)Cc1cncc(-c2ccc3[nH]nc(-c4nc5c(-c6cccc(F)c6)ccnc5[nH]4)c3c2F)c1` [Compound 1417, 1-(5-(4-Fluoro-3-(7-(3-fluorophenyl)-3H-imidazo[4,5-b]pyridin-2-yl)-1H-indazol-5-yl)pyridin-3-yl)-N,N-dimethylmethanamine], the pIC50 was 6.03. With `CN(C)Cc1cncc(-c2ccc3[nH]nc(-c4nc5c(-c6ccsc6)ccnc5[nH]4)c3c2F)c1` [Compound 1677, 1-(5-(4-Fluoro-3-(7-(thiophen-3-yl)-3H-imidazo[4,5-b]pyridin-2-yl)-1H-indazol-5-yl)pyridin-3-yl)-N,N-dimethylmethanamine] the pIC50 was 6.17. `CN(C)Cc1cncc(-c2ccc3[nH]nc(-c4nc5c(-c6cc(F)cc(CNS(C)(=O)=O)c6)ccnc5[nH]4)c3c2F)c1` [Compound 1833, N-(3-(2-(5-(5-((Dimethylamino)methyl)pyridin-3-yl)-4-fluoro-1H-indazol-3-yl)-3H-imidazo[4,5-b]pyridin-7-yl)-5-fluorobenzyl)methanesulfonamide] showed a pIC50 of 6.11. `Fc1cccc(-c2ccnc3[nH]c(-c4n[nH]c5ccc(-c6cncc(OCCN7CCCC7)c6)cc45)nc23)c1` [Compound 1882, 7-(3-Fluorophenyl)-2-(5-(5-(2-(pyrrolidin-1-yl)ethoxy)pyridin-3-yl)-1H-indazol-3-yl)-3H-imidazo[4,5-b]pyridine] showed a pIC50 of 5.38. In the case of `Fc1cccc(-c2ccnc3[nH]c(-c4n[nH]c5ccc(-c6cncc(OCc7ccccc7)c6)cc45)nc23)c1` [Compound 1886, 2-(5-(5-(Benzyloxy)pyridin-3-yl)-1H-indazol-3-yl)-7-(3-fluorophenyl)-3H-imidazo[4,5-b]pyridine], the pIC50 was < 5.00. Compound `CC(C)CC(=O)Nc1cncc(-c2ccc3[nH]nc(-c4nc5c(-c6cc(F)cc(OCCN(C)C)c6)ccnc5[nH]4)c3c2)c1` [Compound 2198, N-(5-(3-(7-(3-(2-(Dimethylamino)ethoxy)-5-fluorophenyl)-3H-imidazo[4,5-b]pyridin-2-yl)-1H-indazol-5-yl)pyridin-3-yl)-3-methylbutanamide] has a pIC50 of 6.74.
